Measured values taken from the supplement of paper PMC10307832.

How the values were obtained:
Test in all cases: relative viability (nuclei count vs DMSO), 5 days (fraction); higher = more cells survive
[1] = system: NCI-H520
In short: (§1)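 For relative viability, nuclei counts in treated wells were divided by those in vehicle wells. Lung cancer cell lines had been pin-tool dosed in 1536-well plates the day after seeding and cultured for 5 days, then fixed and stained in one step (final 0.05% Triton X-100, 1% formaldehyde, 1 ug/ml Hoechst) and imaged at 4×. Doses were one drug alone or a fixed anchor-drug dose plus five library-drug doses (not always all listed) in √10 steps, and values are duplicate-plate medians.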

[2] = system: IA-LM
In short: as §1

[3] = system: NCI-H1299
In short: as §1

[4] = system: Calu-6
In short: as §1

[5] = system: LCLC-103H
In short: as §1

[6] = system: EBC-1
In short: as §1

[7] = system: NCI-H1355
In short: as §1

[8] = system: NCI-H1703
In short: as §1

[9] = system: A549
In short: as §1

SMILES: O=C(O)c1ccc(-c2c[nH]c3ncc(-c4ccccc4)cc23)cc1C1CCCC1 + CS(=O)(=O)N1CCN(Cc2cc3nc(-c4cccc5[nH]ncc45)nc(N4CCOCC4)c3s2)CC1 [Pictilisib] (partner 1 µM)
- relative viability ([1]; first compound 0.04 µM): 0.288
- relative viability ([1]; first compound 0.1265 µM): 0.268
- relative viability ([1]; first compound 0.4 µM): 0.299
- relative viability ([1]; first compound 1.265 µM): 0.262
- relative viability ([2]; first compound 0.04 µM): 0.437
- relative viability ([2]; first compound 0.1265 µM): 0.363
- relative viability ([2]; first compound 0.4 µM): 0.344
- relative viability ([2]; first compound 1.265 µM): 0.402
- relative viability ([3]; first compound 0.04 µM): 0.832
- relative viability ([3]; first compound 0.1265 µM): 0.809
- relative viability ([3]; first compound 0.4 µM): 0.69
- relative viability ([3]; first compound 1.265 µM): 0.584
- relative viability ([4]; first compound 0.04 µM): 0.896
- relative viability ([4]; first compound 0.1265 µM): 1.05
- relative viability ([4]; first compound 0.4 µM): 0.822
- relative viability ([4]; first compound 1.265 µM): 0.667
- relative viability ([5]; first compound 0.04 µM): 0.631
- relative viability ([5]; first compound 0.1265 µM): 0.693
- relative viability ([5]; first compound 0.4 µM): 0.57
- relative viability ([5]; first compound 1.265 µM): 0.632
- relative viability ([6]; first compound 0.04 µM): 0.43
- relative viability ([6]; first compound 0.1265 µM): 0.371
- relative viability ([6]; first compound 0.4 µM): 0.345
- relative viability ([6]; first compound 1.265 µM): 0.327
- relative viability ([7]; first compound 0.04 µM): 0.481
- relative viability ([7]; first compound 0.1265 µM): 0.514
- relative viability ([7]; first compound 0.4 µM): 0.4
- relative viability ([7]; first compound 1.265 µM): 0.35
- relative viability ([8]; first compound 0.04 µM): 0.262
- relative viability ([8]; first compound 0.1265 µM): 0.298
- relative viability ([8]; first compound 0.4 µM): 0.272
- relative viability ([8]; first compound 1.265 µM): 0.224
- relative viability ([9]; first compound 0.04 µM): 0.508
- relative viability ([9]; first compound 0.1265 µM): 0.537
- relative viability ([9]; first compound 0.4 µM): 0.504
- relative viability ([9]; first compound 1.265 µM): 0.291

SMILES: Oc1nc(-c2ccc(C(F)(F)F)cc2)nc2c1CSCC2 [XAV939] + C[C@@H](Oc1cc(-c2cnn(C3CCNCC3)c2)cnc1N)c1c(Cl)ccc(F)c1Cl [Crizotinib] (partner 1 µM)
- relative viability ([1]; first compound 0.08 µM): 0.778
- relative viability ([1]; first compound 0.253 µM): 0.665
- relative viability ([1]; first compound 0.8 µM): 0.668
- relative viability ([1]; first compound 2.53 µM): 0.68
- relative viability ([2]; first compound 0.08 µM): 0.792
- relative viability ([2]; first compound 0.253 µM): 0.876
- relative viability ([2]; first compound 0.8 µM): 0.398
- relative viability ([2]; first compound 2.53 µM): 0.444
- relative viability ([3]; first compound 0.08 µM): 0.94
- relative viability ([3]; first compound 0.253 µM): 0.978
- relative viability ([3]; first compound 0.8 µM): 0.956
- relative viability ([3]; first compound 2.53 µM): 0.958
- relative viability ([4]; first compound 0.08 µM): 0.822
- relative viability ([4]; first compound 0.253 µM): 0.719
- relative viability ([4]; first compound 0.8 µM): 0.7
- relative viability ([4]; first compound 2.53 µM): 0.758
- relative viability ([5]; first compound 0.08 µM): 1.07
- relative viability ([5]; first compound 0.253 µM): 0.917
- relative viability ([5]; first compound 0.8 µM): 0.984
- relative viability ([5]; first compound 2.53 µM): 0.968
- relative viability ([6]; first compound 0.08 µM): 0.213
- relative viability ([6]; first compound 0.253 µM): 0.223
- relative viability ([6]; first compound 0.8 µM): 0.165
- relative viability ([6]; first compound 2.53 µM): 0.182
- relative viability ([7]; first compound 0.08 µM): 1.05
- relative viability ([7]; first compound 0.253 µM): 0.9
- relative viability ([7]; first compound 0.8 µM): 0.828
- relative viability ([7]; first compound 2.53 µM): 0.725
- relative viability ([8]; first compound 0.08 µM): 0.787
- relative viability ([8]; first compound 0.253 µM): 0.621
- relative viability ([8]; first compound 0.8 µM): 0.77
- relative viability ([8]; first compound 2.53 µM): 0.583
- relative viability ([9]; first compound 0.08 µM): 1.07
- relative viability ([9]; first compound 0.253 µM): 0.713
- relative viability ([9]; first compound 0.8 µM): 0.693
- relative viability ([9]; first compound 2.53 µM): 0.633

SMILES: CC1(C)CCC(c2ccc(Cl)cc2)=C(CN2CCN(c3ccc(C(=O)NS(=O)(=O)c4ccc(N[C@H](CCN5CCOCC5)CSc5ccccc5)c(S(=O)(=O)C(F)(F)F)c4)cc3)CC2)C1 [Navitoclax] + Cc1nc(NC(=O)N2CCC[C@H]2C(N)=O)sc1-c1ccnc(C(C)(C)C(F)(F)F)c1 [Alpelisib] (partner 2 µM)
- relative viability ([1]; first compound 0.005 µM): 0.915
- relative viability ([1]; first compound 0.01581 µM): 0.892
- relative viability ([1]; first compound 0.05 µM): 0.981
- relative viability ([1]; first compound 0.1581 µM): 0.892
- relative viability ([1]; first compound 0.5 µM): 0.982
- relative viability ([2]; first compound 0.005 µM): 0.69
- relative viability ([2]; first compound 0.01581 µM): 0.986
- relative viability ([2]; first compound 0.05 µM): 0.737
- relative viability ([2]; first compound 0.1581 µM): 0.792
- relative viability ([2]; first compound 0.5 µM): 0.833
- relative viability ([3]; first compound 0.005 µM): 1.01
- relative viability ([3]; first compound 0.01581 µM): 1.09
- relative viability ([3]; first compound 0.05 µM): 1.11
- relative viability ([3]; first compound 0.1581 µM): 1.06
- relative viability ([3]; first compound 0.5 µM): 1.03
- relative viability ([4]; first compound 0.005 µM): 0.973
- relative viability ([4]; first compound 0.01581 µM): 1.08
- relative viability ([4]; first compound 0.05 µM): 0.943
- relative viability ([4]; first compound 0.1581 µM): 0.875
- relative viability ([4]; first compound 0.5 µM): 0.938
- relative viability ([5]; first compound 0.005 µM): 0.948
- relative viability ([5]; first compound 0.01581 µM): 1.13
- relative viability ([5]; first compound 0.05 µM): 0.97
- relative viability ([5]; first compound 0.1581 µM): 0.919
- relative viability ([5]; first compound 0.5 µM): 0.963
- relative viability ([6]; first compound 0.005 µM): 0.781
- relative viability ([6]; first compound 0.01581 µM): 1.13
- relative viability ([6]; first compound 0.05 µM): 0.928
- relative viability ([6]; first compound 0.1581 µM): 0.829
- relative viability ([6]; first compound 0.5 µM): 0.592
- relative viability ([7]; first compound 0.005 µM): 0.833
- relative viability ([7]; first compound 0.01581 µM): 0.934
- relative viability ([7]; first compound 0.05 µM): 0.846
- relative viability ([7]; first compound 0.1581 µM): 0.74
- relative viability ([7]; first compound 0.5 µM): 0.782
- relative viability ([8]; first compound 0.005 µM): 0.308
- relative viability ([8]; first compound 0.01581 µM): 0.406
- relative viability ([8]; first compound 0.05 µM): 0.425
- relative viability ([8]; first compound 0.1581 µM): 0.457
- relative viability ([8]; first compound 0.5 µM): 0.336
- relative viability ([9]; first compound 0.005 µM): 0.774
- relative viability ([9]; first compound 0.01581 µM): 0.932
- relative viability ([9]; first compound 0.05 µM): 0.922
- relative viability ([9]; first compound 0.1581 µM): 0.803
- relative viability ([9]; first compound 0.5 µM): 0.778
